Values after ≈ are worked out from the molar mass of the structure shown.
Assays:
Toxicity (LD100) = format: in vivo
Neisseria gonorrhoeae = assay: In vitro activity: minimum inhibitory concentration; format: cell-based; conditions: read-out: Mindesthemmkonzentration
From the text: (§1) Zum Nachweis der antimikrobiellen Wirksamkeit der erwähnten Produkte wurden folgende repräsentative Vertreter getestet: • Produkt A: (6R,7R)-7-/2-(2-Amino-4-thiazolyl)-2-[(Z)-methoxyimino]acetamido/-3-/[(2,5-dihydro-6- methoxy-2-methyl-5-oxo-as-triazin-3-yl)-; thio]methyl/-8-oxo-5-thia-1-azabicyclo-[4.2.0]oct-2-en-2-carbonsäure-Natriumsalz • Produkt B: (6R,7R)-7-/2-(2-Amino-4-thiazolyl)-2-[(Z)-methoxyimino]acetamido/-3-/[(3-carboxy-1-methyl-1H-1,2,4-triazol-5-yl)thio]methyl/-8-oxo-5-thia-1-azabicyclo[4.2.0]oct-2-en-2-carbonsäure-Dinatriumsalz • Produkt C: (6R,7R)-7-[2-(2-Amino-4-thiazolyl)-2-((Z)-methoxyimino)acetamido]-3-[[[2,5-dihydro-2-methyl-5-oxo-6-[(pivaloyloxy)methoxy]-as- triazin-3-yl]thio]methyl]-[…]-1-azabicyclo[4.2.0]oct-2-en-2-carbonsäure-Natrium-. salz.
(§2) Aktivität in vitro: Mindesthemmkonzentration (µg/ml)

Enterobacter cloacae = assay: as above; format: cell-based; conditions: β-lactamase-producing strain, read-out: Mindesthemmkonzentration
From the text: as §1, §2

[1] = tested on: Pseudomonas aeruginosa Stamm 1; assay: as above; format: cell-based; conditions: STAMM1; Pseudomonas aeruginosa Stamm 1, β-lactamase-producing strain; read-out: Mindesthemmkonzentration
From the text: as §1, §2

Proteus vulgaris = assay: as above; format: cell-based; conditions: β-lactamase-producing strain, read-out: Mindesthemmkonzentration
From the text: as §1, §2

Staphylococcus aureus = assay: as above; format: cell-based; conditions: read-out: Mindesthemmkonzentration
From the text: as §1, §2

Escherichia coli = assay: as above; format: cell-based; conditions: β-lactamase-producing strain, read-out: Mindesthemmkonzentration
From the text: as §1, §2

Proteus mirabilis = assay: as above; format: cell-based; conditions: β-lactamase-producing strain, read-out: Mindesthemmkonzentration
From the text: as §1, §2

[2] = tested on: Pseudomonas aeruginosa Stamm 2; assay: as above; format: cell-based; conditions: STAMM2; Pseudomonas aeruginosa Stamm 2, β-lactamase-producing strain; read-out: Mindesthemmkonzentration
From the text: as §1, §2

Serratia marcescens = assay: as above; format: cell-based; conditions: β-lactamase-producing strain, read-out: Mindesthemmkonzentration
From the text: as §1, §2

Haemophilus influenzae = assay: as above; format: cell-based; conditions: read-out: Mindesthemmkonzentration
From the text: as §1, §2

Half-life in the rat = assay: Half-life in the rat; parameters: species or system Ratte; conditions: in vivo, 20 mg/kg, after administration of 20 mg substance per kg body weight, read-out: Halbwertzeit
From the text: Verbindungen der Formel I, worin X die Gruppe (b) darstellt, sowie die entsprechenden Ester, Salze und Hydrate zeichnen sich durch eine lange Halbwertzeit aus, d.h. sie bleiben lange im Organismus und können dementsprechend effektiver ihre keimtötende Funktion ausüben. So zeigt z.B. das Dinatriumsalz von (6R,7R)-7-/-2-(2-Amino-4-thiazolyl)-2-[(Z)-me- thoxyimino]acetamido/-3-/[(3-carboxy-1-methyl-1H-1,2,4-triazol-5-yl)thio]methyl/-8-oxo-5-thia-1-azabieyclo[4.2.0]-oct-2-en-2-carbonsäure eine Halbwertzeit an der Ratte von 22 Min. nach Verabreichung von 20 mg Substanz pro kg Körpergewicht.

## CO/N=C(\C(=O)N[C@@H]1C(=O)N2C(C(=O)O)=C(CSc3nc(=O)c(OC)nn3C)CS[C@H]12)c1csc(N)n1 [Produkt A, (6R,7R)-7-/2-(2-Amino-4-thiazolyl)-2-[(Z)-methoxyimino]acetamido/-3-/[(2,5-dihydro-6-methoxy-2-methyl-5-oxo-as-triazin-3-yl)- ; thio]methyl/-8-oxo-5-thia-1-azabicyclo-[4.2.0]oct-2-en-2-carbonsäure-Natriumsalz]
Toxicity (LD100); i.v.
  LD100: > 500 mg/kg
Toxicity (LD100); p.o.
  LD100: >5000 mg/kg
Toxicity (LD100); s.c.
  LD100: >4000 mg/kg
Neisseria gonorrhoeae
  MIC: 0.01 µg/mL (≈ 0.0176 µM)
Enterobacter cloacae
  MIC: 1.2 µg/mL (≈ 2.11 µM)
[1]
  MIC: 40 µg/mL (≈ 70.3 µM)
Proteus vulgaris
  MIC: 0.02 µg/mL (≈ 0.0352 µM)
Staphylococcus aureus
  MIC: 2.5 µg/mL (≈ 4.4 µM)
Escherichia coli
  MIC: 0.04 µg/mL (≈ 0.0703 µM)
Proteus mirabilis
  MIC: 0.04 µg/mL (≈ 0.0703 µM)
[2]
  MIC: 80 µg/mL (≈ 141 µM)
Serratia marcescens
  MIC: 0.16 µg/mL (≈ 0.281 µM)
Haemophilus influenzae
  MIC: 0.01 µg/mL (≈ 0.0176 µM)

## CO/N=C(\C(=O)N[C@@H]1C(=O)N2C(C(=O)O)=C(CSc3nc(C(=O)O)nn3C)CS[C@H]12)c1csc(N)n1 [Produkt B, (6R,7R)-7-/2-(2-Amino-4-thiazolyl)-2-[(Z)-methoxyimino]acetamido/-3-/[(3-carboxy-1-methyl-1H-1,2,4-triazol-5-yl)thio]methyl/-8-oxo-5-thia-1-azabicyclo[4.2.0]oct-2-en-2-carbonsäure-Dinatriumsalz]
Toxicity (LD100); p.o.
  LD100: >5000 mg/kg
Half-life in the rat
  half-life: 22 min
Neisseria gonorrhoeae
  MIC: 0.0025 µg/mL (≈ 0.00451 µM)
Enterobacter cloacae
  MIC: 10 µg/mL (≈ 18 µM)
[1]
  MIC: 40 µg/mL (≈ 72.1 µM)
Proteus vulgaris
  MIC: 0.01 µg/mL (≈ 0.018 µM)
Staphylococcus aureus
  MIC: 10 µg/mL (≈ 18 µM)
Escherichia coli
  MIC: 0.08 µg/mL (≈ 0.144 µM)
Proteus mirabilis
  MIC: 0.01 µg/mL (≈ 0.018 µM)
[2]
  MIC: 40 µg/mL (≈ 72.1 µM)
Serratia marcescens
  MIC: 0.16 µg/mL (≈ 0.289 µM)
Haemophilus influenzae
  MIC: 0.01 µg/mL (≈ 0.018 µM)

## CO/N=C(\C(=O)N[C@@H]1C(=O)N2C(C(=O)O)=C(CSc3nc(=O)c(OCOC(=O)C(C)(C)C)nn3C)CS[C@H]12)c1csc(N)n1 [Produkt C, (6R,7R)-7-[2-(2-Amino-4-thiazolyl)-2-((Z)-methoxyimino)acetamido]-3-[[[2,5-dihydro-2-methyl-5-oxo-6-[(pivaloyloxy)methoxy]-as-triazin-3-yl]thio]methyl]-[…]-1-azabicyclo[4.2.0]oct-2-en-2-carbonsäure-Natrium-. salz]
Toxicity (LD100); i.v.
  LD100: >500 mg/kg
Toxicity (LD100); p.o.
  LD100: >5000 mg/kg
Toxicity (LD100); s.c.
  LD100: >4000 mg/kg
Enterobacter cloacae
  MIC: 25 µg/mL (≈ 37.4 µM)
[1]
  MIC: 50 µg/mL (≈ 74.8 µM)
Proteus vulgaris
  MIC: 0.2 µg/mL (≈ 0.299 µM)
Staphylococcus aureus
  MIC: 1.6 µg/mL (≈ 2.39 µM)
Escherichia coli
  MIC: 0.1 µg/mL (≈ 0.15 µM)
Proteus mirabilis
  MIC: 0.4 µg/mL (≈ 0.598 µM)
[2]
  MIC: 50 µg/mL (≈ 74.8 µM)
Serratia marcescens
  MIC: 3.1 µg/mL (≈ 4.64 µM)
Haemophilus influenzae
  MIC: 0.04 µg/mL (≈ 0.0598 µM)

Reference: EP0036652A2, “Cephalosporin derivatives, process for their preparation, corresponding compositions, their use in the treatment of diseases and intermediates” (F. HOFFMANN-LA ROCHE & CO. Aktiengesellschaft, priority 1980, dated 1981)
